Experimental data: patent US4464385A, “Treatment of diabetic complications with hydantoins” (Alcon Laboratories, Inc., priority 1982, dated 1984)

System: cataracts in rats
Assay: Prevention or retardation of cataracts in galactose-fed rats
Format: in vivo, rat
Details: 30% galactose diet, A,C,E 0.0025%, B,D 0.01%
Protocol: The compounds to be tested were:
Test compound/diet mixtures were formulated as follows: […]
Similarly, the 0.01% level was designed to provide a drug concentration of 20 mg per kilogram per day.
All animals were fed the Purina Laboratory Chow and water, ad libitum for a two day acclimatization period. The indicated test compound/diet mixture then was introduced to all animals on Study Day 1 and the animals were maintained on this diet throughout thirty days of the study.
Sufficient amounts of test compound/diet mixture were maintained in the food hoppers to allow the animals to eat ad libitum. All aliquots of test compound/diet mixture added to the food hoopers were weighed and the weights, as well as day of addition, recorded.
Twelve animals were assigned to each treatment with each compound at the indicated percentage by total weight of feed. All eyes were examined with a handheld ophthalmoscope and/or penlight.

O=C1NC(=O)C2(CCOc3ccc(F)cc32)N1 (stereo not drawn) [E]
% of Total Eyes, + (vacuole) (Study Day 2): 0% | % of Total Eyes, - (Normal) (Study Day 2): 100.0% | % of Total Eyes, N (nuclear cataract) (Study Day 2): 0% | % of Total Eyes, S (snowflake) (Study Day 2): 0% | Number of Eyes Observed, + (vacuole) (Study Day 2): 0 eyes | Number of Eyes Observed, - (Normal) (Study Day 2): 24 eyes | Number of Eyes Observed, N (nuclear cataract) (Study Day 2): 0 eyes | Number of Eyes Observed, S (snowflake) (Study Day 2): 0 eyes | Number of Eyes Observed, ± (Study Day 2): 0 eyes | % of Total Eyes, + (vacuole) (Study Day 3): 0% | % of Total Eyes, - (Normal) (Study Day 3): 100.0% | % of Total Eyes, N (nuclear cataract) (Study Day 3): 0% | % of Total Eyes, S (snowflake) (Study Day 3): 0% | Number of Eyes Observed, + (vacuole) (Study Day 3): 0 eyes | Number of Eyes Observed, - (Normal) (Study Day 3): 24 eyes | Number of Eyes Observed, N (nuclear cataract) (Study Day 3): 0 eyes | Number of Eyes Observed, S (snowflake) (Study Day 3): 0 eyes | Number of Eyes Observed, ± (Study Day 3): 0 eyes | % of Total Eyes, + (vacuole) (Study Day 4): 0% | % of Total Eyes, - (Normal) (Study Day 4): 100.0% | % of Total Eyes, N (nuclear cataract) (Study Day 4): 0% | % of Total Eyes, S (snowflake) (Study Day 4): 0% | Number of Eyes Observed, + (vacuole) (Study Day 4): 0 eyes | Number of Eyes Observed, - (Normal) (Study Day 4): 24 eyes | Number of Eyes Observed, N (nuclear cataract) (Study Day 4): 0 eyes | Number of Eyes Observed, S (snowflake) (Study Day 4): 0 eyes | Number of Eyes Observed, ± (Study Day 4): 0 eyes | % of Total Eyes, + (vacuole) (Study Day 5): 0% | % of Total Eyes, - (Normal) (Study Day 5): 100.0% | % of Total Eyes, N (nuclear cataract) (Study Day 5): 0% | % of Total Eyes, S (snowflake) (Study Day 5): 0% | Number of Eyes Observed, + (vacuole) (Study Day 5): 0 eyes | Number of Eyes Observed, - (Normal) (Study Day 5): 24 eyes | Number of Eyes Observed, N (nuclear cataract) (Study Day 5): 0 eyes | Number of Eyes Observed, S (snowflake) (Study Day 5): 0 eyes | Number of Eyes Observed, ± (Study Day 5): 0 eyes | % of Total Eyes, + (vacuole) (Study Day 6): 0% | % of Total Eyes, - (Normal) (Study Day 6): 100.0% | % of Total Eyes, N (nuclear cataract) (Study Day 6): 0% | % of Total Eyes, S (snowflake) (Study Day 6): 0% | Number of Eyes Observed, + (vacuole) (Study Day 6): 0 eyes | Number of Eyes Observed, - (Normal) (Study Day 6): 24 eyes | Number of Eyes Observed, N (nuclear cataract) (Study Day 6): 0 eyes | Number of Eyes Observed, S (snowflake) (Study Day 6): 0 eyes | Number of Eyes Observed, ± (Study Day 6): 0 eyes | % of Total Eyes, + (vacuole) (Study Day 8): 0% | % of Total Eyes, - (Normal) (Study Day 8): 100.0% | % of Total Eyes, N (nuclear cataract) (Study Day 8): 0% | % of Total Eyes, S (snowflake) (Study Day 8): 0% | Number of Eyes Observed, + (vacuole) (Study Day 8): 0 eyes | Number of Eyes Observed, - (Normal) (Study Day 8): 24 eyes | Number of Eyes Observed, N (nuclear cataract) (Study Day 8): 0 eyes | Number of Eyes Observed, S (snowflake) (Study Day 8): 0 eyes | Number of Eyes Observed, ± (Study Day 8): 0 eyes | % of Total Eyes, + (vacuole) (Study Day 10): 0% | % of Total Eyes, - (Normal) (Study Day 10): 100.0% | % of Total Eyes, N (nuclear cataract) (Study Day 10): 0% | % of Total Eyes, S (snowflake) (Study Day 10): 0% | Number of Eyes Observed, + (vacuole) (Study Day 10): 0 eyes | Number of Eyes Observed, - (Normal) (Study Day 10): 24 eyes | Number of Eyes Observed, N (nuclear cataract) (Study Day 10): 0 eyes | Number of Eyes Observed, S (snowflake) (Study Day 10): 0 eyes | Number of Eyes Observed, ± (Study Day 10): 0 eyes | % of Total Eyes, + (vacuole) (Study Day 12): 0% | % of Total Eyes, - (Normal) (Study Day 12): 95.8% | % of Total Eyes, N (nuclear cataract) (Study Day 12): 0% | % of Total Eyes, S (snowflake) (Study Day 12): 0% | Number of Eyes Observed, + (vacuole) (Study Day 12): 0 eyes | Number of Eyes Observed, - (Normal) (Study Day 12): 23 eyes | Number of Eyes Observed, N (nuclear cataract) (Study Day 12): 0 eyes | Number of Eyes Observed, S (snowflake) (Study Day 12): 0 eyes | Number of Eyes Observed, ± (Study Day 12): 1 eyes | % of Total Eyes, + (vacuole) (Study Day 14): 0% | % of Total Eyes, - (Normal) (Study Day 14): 87.5% | % of Total Eyes, N (nuclear cataract) (Study Day 14): 0% | % of Total Eyes, S (snowflake) (Study Day 14): 0% | Number of Eyes Observed, + (vacuole) (Study Day 14): 0 eyes | Number of Eyes Observed, - (Normal) (Study Day 14): 21 eyes | Number of Eyes Observed, N (nuclear cataract) (Study Day 14): 0 eyes | Number of Eyes Observed, S (snowflake) (Study Day 14): 0 eyes | Number of Eyes Observed, ± (Study Day 14): 3 eyes | % of Total Eyes, + (vacuole) (Study Day 16): 0% | % of Total Eyes, - (Normal) (Study Day 16): 83.3% | % of Total Eyes, N (nuclear cataract) (Study Day 16): 0% | % of Total Eyes, S (snowflake) (Study Day 16): 0% | Number of Eyes Observed, + (vacuole) (Study Day 16): 0 eyes | Number of Eyes Observed, - (Normal) (Study Day 16): 20 eyes | Number of Eyes Observed, N (nuclear cataract) (Study Day 16): 0 eyes | Number of Eyes Observed, S (snowflake) (Study Day 16): 0 eyes | Number of Eyes Observed, ± (Study Day 16): 4 eyes | % of Total Eyes, + (vacuole) (Study Day 18): 0% | % of Total Eyes, - (Normal) (Study Day 18): 58.4% | % of Total Eyes, N (nuclear cataract) (Study Day 18): 0% | % of Total Eyes, S (snowflake) (Study Day 18): 0% | Number of Eyes Observed, + (vacuole) (Study Day 18): 0 eyes | Number of Eyes Observed, - (Normal) (Study Day 18): 14 eyes | Number of Eyes Observed, N (nuclear cataract) (Study Day 18): 0 eyes | Number of Eyes Observed, S (snowflake) (Study Day 18): 0 eyes | Number of Eyes Observed, ± (Study Day 18): 10 eyes | % of Total Eyes, + (vacuole) (Study Day 20): 4.2% | % of Total Eyes, - (Normal) (Study Day 20): 12.5% | % of Total Eyes, N (nuclear cataract) (Study Day 20): 0% | % of Total Eyes, S (snowflake) (Study Day 20): 41.6% | Number of Eyes Observed, + (vacuole) (Study Day 20): 1 eyes | Number of Eyes Observed, - (Normal) (Study Day 20): 3 eyes | Number of Eyes Observed, N (nuclear cataract) (Study Day 20): 0 eyes | Number of Eyes Observed, S (snowflake) (Study Day 20): 10 eyes | Number of Eyes Observed, ± (Study Day 20): 10 eyes | % of Total Eyes, + (vacuole) (Study Day 22): 8.3% | % of Total Eyes, - (Normal) (Study Day 22): 0% | % of Total Eyes, N (nuclear cataract) (Study Day 22): 0% | % of Total Eyes, S (snowflake) (Study Day 22): 66.7% | Number of Eyes Observed, + (vacuole) (Study Day 22): 2 eyes | Number of Eyes Observed, - (Normal) (Study Day 22): 0 eyes | Number of Eyes Observed, N (nuclear cataract) (Study Day 22): 0 eyes | Number of Eyes Observed, S (snowflake) (Study Day 22): 16 eyes | Number of Eyes Observed, ± (Study Day 22): 6 eyes | % of Total Eyes, + (vacuole) (Study Day 24): 12.5% | % of Total Eyes, - (Normal) (Study Day 24): 0% | % of Total Eyes, N (nuclear cataract) (Study Day 24): 0% | % of Total Eyes, S (snowflake) (Study Day 24): 83.3% | Number of Eyes Observed, + (vacuole) (Study Day 24): 3 eyes | Number of Eyes Observed, - (Normal) (Study Day 24): 0 eyes | Number of Eyes Observed, N (nuclear cataract) (Study Day 24): 0 eyes | Number of Eyes Observed, S (snowflake) (Study Day 24): 20 eyes | Number of Eyes Observed, ± (Study Day 24): 1 eyes | % of Total Eyes, + (vacuole) (Study Day 26): 16.7% | % of Total Eyes, - (Normal) (Study Day 26): 0% | % of Total Eyes, N (nuclear cataract) (Study Day 26): 0% | % of Total Eyes, S (snowflake) (Study Day 26): 83.3% | Number of Eyes Observed, + (vacuole) (Study Day 26): 4 eyes | Number of Eyes Observed, - (Normal) (Study Day 26): 0 eyes | Number of Eyes Observed, N (nuclear cataract) (Study Day 26): 0 eyes | Number of Eyes Observed, S (snowflake) (Study Day 26): 20 eyes | Number of Eyes Observed, ± (Study Day 26): 0 eyes | % of Total Eyes, + (vacuole) (Study Day 28): 8.3% | % of Total Eyes, - (Normal) (Study Day 28): 0% | % of Total Eyes, N (nuclear cataract) (Study Day 28): 0% | % of Total Eyes, S (snowflake) (Study Day 28): 91.7% | Number of Eyes Observed, + (vacuole) (Study Day 28): 2 eyes | Number of Eyes Observed, - (Normal) (Study Day 28): 0 eyes | Number of Eyes Observed, N (nuclear cataract) (Study Day 28): 0 eyes | Number of Eyes Observed, S (snowflake) (Study Day 28): 22 eyes | Number of Eyes Observed, ± (Study Day 28): 0 eyes | % of Total Eyes, + (vacuole) (Study Day 30): 4.2% | % of Total Eyes, - (Normal) (Study Day 30): 0% | % of Total Eyes, N (nuclear cataract) (Study Day 30): 0% | % of Total Eyes, S (snowflake) (Study Day 30): 95.8% | Number of Eyes Observed, + (vacuole) (Study Day 30): 1 eyes | Number of Eyes Observed, - (Normal) (Study Day 30): 0 eyes | Number of Eyes Observed, N (nuclear cataract) (Study Day 30): 0 eyes | Number of Eyes Observed, S (snowflake) (Study Day 30): 23 eyes | Number of Eyes Observed, ± (Study Day 30): 0 eyes
